Laboratory results from patent US11739074B2, “Ras inhibitors” (Revolution Medicines, Inc., priority 2019, dated 2023).
Read-outs that look alike come from different tables or passages of the source.

Tests used:
[1] = target: KRAS G13D (Homo sapiens, UniProt P01116+P62937, G13D); assay: Ras-Raf disruption/FRET/MOA assay, KRAS G13D; format: biochemical
Text: (§1) Disruption of B-Raf Ras-Binding Domain (BRAF^RBD) Interaction with K-Ras by Compounds of the Invention (Also Called a FRET Assay or an MOA Assay)
(§2) Note—The following protocol describes a procedure for monitoring disruption of K-Ras G12C (GMP-PNP) binding to BRAF^RBD by a compound of the invention. This protocol may also be executed substituting other Ras proteins or nucleotides, such as K-Ras G12D and K-Ras G13D.
(§3) The purpose of this biochemical assay was to measure the ability of test compounds to facilitate ternary complex formation between a nucleotide-loaded K-Ras isoform and Cyclophilin A; the resulting ternary complex disrupts binding to a BRAF^RBD construct, inhibiting K-Ras signaling through a RAF effector.
(§4) In assay buffer containing 25 mM HEPES pH 7.3, 0.002% Tween20, 0.1% BSA, 100 mM NaCl and 5 mM MgCl2, tagless Cyclophilin A, His6-K-Ras-GMPPNP, and GST-BRAF^RBD were combined in a 384-well assay plate at final concentrations of 25 μM, 12.5 nM, and 50 nM, respectively. Compound was present in plate wells as a 10-point 3-fold dilution series starting at a final concentration of 30 μM. After incubation at 25° C. for 3 hours, a mixture of anti-His Eu-W1024 and anti-GST allophycocyanin was then added to assay sample wells at final concentrations of 10 nM and 50 nM, respectively, and the reaction incubated for an additional 1.5 hours. […] Compounds that facilitate disruption of a K-Ras:RAF complex were identified as those eliciting a decrease in the TR-FRET ratio relative to DMSO control wells.

[2] = target: KRAS G12S (Homo sapiens, UniProt P01116+P62937, G12S); assay: Ras-Raf disruption/FRET/MOA assay, KRAS G12S; format: biochemical
Sequence of KRAS G12S (P01116 1-169 isoform P01116-2 G12S limits assumed): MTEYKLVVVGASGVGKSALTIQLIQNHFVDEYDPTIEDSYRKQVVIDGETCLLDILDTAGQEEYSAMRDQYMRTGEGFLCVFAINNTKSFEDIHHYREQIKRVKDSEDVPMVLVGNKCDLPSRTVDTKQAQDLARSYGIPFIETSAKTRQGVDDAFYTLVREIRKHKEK
Sequence of KRAS G12S (P62937 whole entry): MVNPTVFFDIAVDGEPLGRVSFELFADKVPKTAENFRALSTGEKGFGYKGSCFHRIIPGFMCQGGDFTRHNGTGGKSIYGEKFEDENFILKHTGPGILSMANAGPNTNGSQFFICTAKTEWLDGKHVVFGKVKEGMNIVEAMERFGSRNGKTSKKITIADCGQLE
Text: as §1, §2, §3, §4

[3] = target: KRAS G12V (Homo sapiens, UniProt P01116+P62937, G12V); assay: Ras-Raf disruption/FRET/MOA assay, KRAS G12V; format: biochemical
Sequence of KRAS G12V (P01116 1-169 isoform P01116-2 G12V limits assumed): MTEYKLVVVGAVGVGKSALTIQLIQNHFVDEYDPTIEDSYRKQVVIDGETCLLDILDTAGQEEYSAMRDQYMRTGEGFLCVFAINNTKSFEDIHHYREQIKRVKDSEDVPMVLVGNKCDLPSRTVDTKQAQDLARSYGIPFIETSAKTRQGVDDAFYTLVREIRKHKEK
Sequence of KRAS G12V (P62937 whole entry): as the sequence (P62937 whole entry) above
Text: as §1, §2, §3, §4

[4] = tested on: AsPC-1 (K-Ras G12D); assay: Potency assay: pERK in AsPC-1 cells; format: cell-based; settings: Homo sapiens
[5] = target: KRAS G13C (Homo sapiens, UniProt P01116+P62937, G13C); assay: Ras-Raf disruption/FRET/MOA assay, KRAS G13C; format: biochemical
Sequence of KRAS G13C (P01116 1-169 isoform P01116-2 G13C limits assumed): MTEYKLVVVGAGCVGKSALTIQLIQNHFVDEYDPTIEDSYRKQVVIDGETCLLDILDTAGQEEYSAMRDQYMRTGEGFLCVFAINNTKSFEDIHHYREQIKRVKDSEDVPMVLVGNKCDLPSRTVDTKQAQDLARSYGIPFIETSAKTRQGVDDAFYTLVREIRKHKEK
Sequence of KRAS G13C (P62937 whole entry): as the sequence (P62937 whole entry) above
Text: as §1, §2, §3, §4

[6] = target: KRAS G12C (Homo sapiens, UniProt P01116+P62937, G12C); assay: Ras-Raf disruption/FRET/MOA assay, KRAS G12C; format: biochemical
Sequence of KRAS G12C (P01116 1-169 isoform P01116-2 G12C limits assumed): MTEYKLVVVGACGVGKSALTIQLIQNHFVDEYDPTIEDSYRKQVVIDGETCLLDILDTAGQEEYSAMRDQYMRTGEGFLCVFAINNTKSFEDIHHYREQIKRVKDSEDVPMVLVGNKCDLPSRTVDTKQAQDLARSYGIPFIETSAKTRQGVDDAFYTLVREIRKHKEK
Sequence of KRAS G12C (P62937 whole entry): as the sequence (P62937 whole entry) above
Text: as §1, §2, §3, §4

[7] = tested on: AsPC-1 (K-Ras G12D); assay: CellTiter-Glo cell viability assay, AsPC-1; format: cell-based; settings: Homo sapiens, ASPC1, 120 h
In short: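 Cells already in plates received compound by direct dispensing. After incubation to day 5, plates sat at room temperature roughly 30 minutes, then ATP-based luminescence was measured and values derived from a four-parameter fit of DMSO-normalized data.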

[8] = target: KRAS G12D (Homo sapiens, UniProt P01116+P62937, G12D); assay: Ras-Raf disruption/FRET/MOA assay, KRAS G12D; format: biochemical
Sequence of KRAS G12D (P01116 1-169 isoform P01116-2 G12D limits assumed): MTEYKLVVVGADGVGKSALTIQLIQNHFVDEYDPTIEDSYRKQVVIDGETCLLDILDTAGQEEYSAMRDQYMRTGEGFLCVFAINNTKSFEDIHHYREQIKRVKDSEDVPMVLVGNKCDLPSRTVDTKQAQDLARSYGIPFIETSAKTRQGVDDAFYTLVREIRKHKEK
Sequence of KRAS G12D (P62937 whole entry): as the sequence (P62937 whole entry) above
Text: as §1, §2, §3, §4

[9] = target: T1, NRAS G12C (Homo sapiens, UniProt P01111+P62937, G12C); assay: Ras-Raf disruption/FRET/MOA assay, NRAS G12C; format: biochemical
T1 construct: His6
T1 sequence (P01111 whole entry G12C): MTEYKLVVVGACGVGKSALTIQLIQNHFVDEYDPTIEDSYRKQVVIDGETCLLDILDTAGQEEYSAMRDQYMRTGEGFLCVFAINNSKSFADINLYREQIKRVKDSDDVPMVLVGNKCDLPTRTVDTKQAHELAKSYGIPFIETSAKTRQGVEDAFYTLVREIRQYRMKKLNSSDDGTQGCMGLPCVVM
T1 sequence (P62937 whole entry): as the sequence (P62937 whole entry) above
Text: as §1, §2, §3, §4

[10] = target: KRAS WT (Homo sapiens, UniProt P01116+P62937); assay: Ras-Raf disruption/FRET/MOA assay, KRAS WT; format: biochemical
Sequence of KRAS WT (P01116 1-169 isoform P01116-2 limits assumed): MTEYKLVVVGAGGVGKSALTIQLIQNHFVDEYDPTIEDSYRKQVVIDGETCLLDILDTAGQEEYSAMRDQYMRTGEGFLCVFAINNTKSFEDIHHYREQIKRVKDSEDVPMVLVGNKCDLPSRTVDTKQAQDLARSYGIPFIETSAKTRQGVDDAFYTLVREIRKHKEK
Sequence of KRAS WT (P62937 whole entry): as the sequence (P62937 whole entry) above
Text: as §1, §2, §3, §4

[11] = disruption of BRAF RBD binding, with Cyclophilin A, read-out: KRAS G13D FRET IC50
[12] = disruption of BRAF RBD binding, with Cyclophilin A, read-out: KRAS G12S FRET IC50
[13] = disruption of BRAF RBD binding, with Cyclophilin A, read-out: KRAS G12V FRET IC50
[14] = ASPC1, AsPC-1 cells, K-Ras G12D, read-out: pERK EC50 (AsPC-1 KRAS G12D)
[15] = disruption of BRAF RBD binding, with Cyclophilin A, read-out: KRAS G13C FRET IC50
[16] = disruption of BRAF RBD binding, with Cyclophilin A, read-out: KRAS G12C FRET IC50
[17] = AsPC-1, K-Ras G12D, 5-day treatment, read-out: AsPC-1 Cell Viability IC50
[18] = disruption of BRAF RBD binding, with Cyclophilin A, read-out: KRAS G12D FRET IC50
[19] = NRAS G12C, read-out: NRAS G12C FRET data IC50
[20] = disruption of BRAF RBD binding, with Cyclophilin A, read-out: KRAS WT FRET IC50
[21] = ASPC1, read-out: pERK EC50 (AsPC-1 KRAS G12D)
[22] = read-out: AsPC-1 Cell Viability IC50, AsPC-1, K-Ras G12D, 5-day treatment
[23] = NRAS G12C FRET data IC50, NRAS G12C

Sequence of KRAS G13D (P01116 1-169 isoform P01116-2 G13D limits assumed): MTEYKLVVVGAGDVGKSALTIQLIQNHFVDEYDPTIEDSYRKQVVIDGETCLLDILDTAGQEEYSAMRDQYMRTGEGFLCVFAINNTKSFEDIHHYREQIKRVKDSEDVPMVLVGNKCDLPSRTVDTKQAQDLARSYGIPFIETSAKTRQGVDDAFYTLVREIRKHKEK
Sequence of KRAS G13D (P62937 whole entry, the tested form may be a part): as the sequence (P62937 whole entry) above

SMILES | IC50 [1, 11] [nM] | IC50 [2, 12] [nM] | IC50 [3, 13] [nM] | EC50 [4, 14] [nM] | IC50 [5, 15] [nM] | IC50 [6, 16] [nM] | IC50 [7, 17] [nM] | IC50 [8, 18] [nM] | IC50 [9, 19] [nM] | IC50 [10, 20] [nM] | EC50 [4, 21] [nM] | also measured
CCn1c(-c2cccnc2[C@H](C)OC)c2c3cc(ccc31)-c1cc(O)cc(c1)C[C@H](NC(=O)[C@H](C(C)C)N1CC[C@@]3(CCCN(C(=O)[C@H]4CN4)C3)C1=O)C(=O)N1CCC[C@H](N1)C(=O)OCC(C)(C)C2 [Compound 199] | 100 to 1000 | 100 to 1000 | 100 to 1000 | < 5000 | 100 to 1000 | 100 to 1000 | 1000 to 10000 | 100 to 1000 | 100 to 1000 | 100 to 1000 | – | –
CCn1c(-c2cccnc2[C@H](C)OC)c2c3cc(ccc31)-c1cc(O)cc(c1)C[C@H](NC(=O)[C@H](C(C)C)N1CCC3(CCN(C(=O)[C@H]4CN4)CC3)C1=O)C(=O)N1CCC[C@H](N1)C(=O)OCC(C)(C)C2 [Compound 196] | 10 to 100 | 100 to 1000 | 100 to 1000 | < 5000 | 10 to 100 | < 10 | 1000 to 10000 | 100 to 1000 | < 10 | 10 to 100 | – | –
CCn1c(-c2cccnc2[C@H](C)OC)c2c3cc(ccc31)-c1cc(O)cc(c1)C[C@H](NC(=O)[C@H](C(C)C)N(C)C(=O)CN(C)C(=O)[C@H]1N[C@H]1C1CC1)C(=O)N1CCC[C@H](N1)C(=O)OCC(C)(C)C2 [Compound 134] | – | – | – | – | – | – | – | – | – | – | < 5000 | IC50 [1]: 100 to 1000 nM; IC50 [2]: 10 to 100 nM; IC50 [3]: 100 to 1000 nM; IC50 [5]: 10 to 100 nM; IC50 [6]: 10 to 100 nM; IC50 [7, 22]: 1000 to 10000 nM; IC50 [8]: 100 to 1000 nM; IC50 [9, 23]: 10 to 100 nM; IC50 [10]: 10 to 100 nM
CCn1c(-c2cnccc2COC)c2c3cc(ccc31)-c1cc(O)cc(c1)C[C@H](NC(=O)[C@H](C(C)C)N(C)C(=O)CN(C)C(=O)[C@@H]1CN1C(=O)OC)C(=O)N1CCC[C@H](N1)C(=O)OCC(C)(C)C2 [Compound 39] | 100 to 1000 | 10 to 100 | 100 to 1000 | – | 10 to 100 | 10 to 100 | – | 100 to 1000 | 10 to 100 | 100 to 1000 | < 5000 | IC50 ([7]; read-out: AsPC-1 Cell Viability IC50): 1000 to 10000 nM
CCn1c(-c2cccnc2[C@H](C)OC)c2c3cc(ccc31)-c1cc(O)cc(c1)C[C@H](NC(=O)[C@H](C(C)C)N1CC[C@@]3(CCN(C[C@H]4CN4)C3)C1=O)C(=O)N1CCC[C@H](N1)C(=O)OCC(C)(C)C2 [Compound 193] | 10 to 100 | 100 to 1000 | 1000 to 10000 | < 5000 | 10 to 100 | 10 to 100 | 1000 to 10000 | 100 to 1000 | 10 to 100 | 10 to 100 | – | –
CCn1c(-c2cccnc2[C@H](C)OC)c2c3cc(ccc31)-c1cc(O)cc(c1)C[C@H](NC(=O)[C@H](C(C)C)N1CC[C@]3(CCCN(C(=O)[C@@H]4CN4)C3)C1=O)C(=O)N1CCC[C@H](N1)C(=O)OCC(C)(C)C2 [Compound 192] | 1000 to 10000 | 100 to 1000 | 10 to 100 | < 5000 | 100 to 1000 | < 10 | 1000 to 10000 | 100 to 1000 | < 10 | 100 to 1000 | – | –
CCn1c(-c2cccnc2[C@H](C)OC)c2c3cc(ccc31)-c1cc(O)cc(c1)C[C@H](NC(=O)[C@H](C(C)C)N1CC[C@]3(CCCN(C(=O)[C@H]4CN4)C3)C1=O)C(=O)N1CCC[C@H](N1)C(=O)OCC(C)(C)C2 [Compound 200] | 100 to 1000 | 10 to 100 | 10 to 100 | < 5000 | 10 to 100 | < 10 | 1000 to 10000 | 100 to 1000 | < 10 | 100 to 1000 | – | –
CCn1c(-c2cnccc2COC)c2c3cc(ccc31)-c1cc(O)cc(c1)C[C@H](NC(=O)[C@H](C(C)C)N(C)C(=O)CN(C)C(=O)[C@@H]1N[C@@H]1c1ccccc1)C(=O)N1CCC[C@H](N1)C(=O)OCC(C)(C)C2 [Compound 110] | – | – | – | – | – | – | – | – | – | – | < 5000 | IC50 [1]: 100 to 1000 nM; IC50 [2]: 10 to 100 nM; IC50 [3]: 100 to 1000 nM; IC50 [5]: 100 to 1000 nM; IC50 [6]: 10 to 100 nM; IC50 [7, 22]: 1000 to 10000 nM; IC50 [8]: 100 to 1000 nM; IC50 [9, 23]: 10 to 100 nM; IC50 [10]: 10 to 100 nM
CCn1c(-c2cnccc2COC)c2c3cc(ccc31)-c1cc(O)cc(c1)C[C@H](NC(=O)[C@H](C(C)C)N(C)C(=O)[C@H]1CCN(C(=O)N3C[C@@H]3C(=O)OC)C1)C(=O)N1CCC[C@H](N1)C(=O)OCC(C)(C)C2 [Compound 94] | 100 to 1000 | 100 to 1000 | 100 to 1000 | < 5000 | 10 to 100 | 10 to 100 | > 10000 | 1000 to 10000 | 100 to 1000 | 100 to 1000 | – | –
CCn1c(-c2cccnc2[C@H](C)OC)c2c3cc(ccc31)-c1cc(O)cc(c1)C[C@H](NC(=O)[C@H](C(C)C)N(C)C(=O)[C@@H]1CN(C(=O)[C@H]3CN3)C[C@@H]1C)C(=O)N1CCC[C@H](N1)C(=O)OCC(C)(C)C2 [Compound 88] | 10 to 100 | 10 to 100 | 10 to 100 | < 5000 | 10 to 100 | < 10 | 100 to 1000 | 10 to 100 | < 10 | 10 to 100 | – | –
